The test deals with B6C3F1 mice, B16 melanoma ip, median survival T/C. Briefly: NCI In Vivo Anticancer Drug Screen. Data for tumor model B16 Melanoma (intraperitoneal) in B6C3F1 mice. As to conditions: endpoint: median survival time, schedule: Q01DX009 (ip), higher = longer survival. The gist of the method: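 Antitumor effect was judged in mice with transplanted tumors by dividing the treated group's survival measure by that of vehicle controls.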

Where [1] appears, read: dose: 3.12 mg/kg/injection, vehicle: saline with Tween-80.
Where [2] appears, read: dose: 6.25 mg/kg/injection, vehicle: saline with Tween-80.
The mark [3] stands for this setting: dose: 200.0 mg/kg/injection, vehicle: saline with Tween-80.
The mark [4] stands for this setting: dose: 12.5 mg/kg/injection, vehicle: saline.
Where [5] appears, read: dose: 25.0 mg/kg/injection, vehicle: saline.
The mark [6] stands for this setting: dose: 10.0 mg/kg/injection, vehicle: saline with Tween-80.
The mark [7] stands for this setting: dose: 12.5 mg/kg/injection, vehicle: saline with Tween-80.
Where [8] appears, read: dose: 25.0 mg/kg/injection, vehicle: saline with Tween-80.

Where “and” joins values, the source holds several entries; their conditions need not be identical. Identical values can stand only once. Toxic doses and inconclusive results are not listed. *1 amine or outer side, *2 acyl side, *3 side chain or, on linkers, in order; H or OH if unused. Where a SMILES comes first, the peptide text is derived from it. Bridges are numbered along the chain shown (N, C = ends). Roman numbers before positions name the chains, in order. [ ]: non-standard residue; d: D form. The star is where a group is joined. ξ: configuration not given here. Quinaldoyl(3-OH,6-OMe) = COc1ccc2nc(C(=O)*)c(O)cc2c1; X6 = CCC(=O)OC1CC=NN([*:1])C1C(=O)[*:2]; X7 = CC(=O)OC1CC=NN([*:1])C1C(=O)[*:2]; ξNMeVal(3-OH) = CNC(C(=O)O)C(C)(C)O; Sar = CNCC(=O)O

For `Oc1cc2ccccc2c(-c2c(O)c(O)cc3ccccc23)c1O`, the T/C (dose: 0.78 mg/kg/injection, vehicle: saline with Tween-80) was 95 % of control; the T/C (dose: 1.56 mg/kg/injection, vehicle: saline with Tween-80) is 115 % of control; the T/C under setting [1] is 99 % of control; the T/C under setting [2] was 111 % of control and 93 % of control; the T/C under setting [3] is 100 % of control.
Consider `COc1cc2c(c(OC)c1OC)-c1ccc(OC)c(=O)cc1[C@@H](NC(=O)CCl)CC2`, for which the T/C is, setting by setting: (dose: 0.12 mg/kg/injection, vehicle: saline with Tween-80) 154 % of control; (dose: 0.25 mg/kg/injection, vehicle: saline with Tween-80) 154 % of control.
Consider `CNC[C@@H](O)c1ccc(O)c(O)c1`, for which the T/C runs as follows: (dose: 0.75 mg/kg/injection, vehicle: suspension in saline) 114 % of control; (dose: 1.5 mg/kg/injection, vehicle: suspension in saline) 115 % of control; (dose: 3.0 mg/kg/injection, vehicle: suspension in saline) 99 % of control.
On to `CN(CCN(C)C(=O)CCOS(C)(=O)=O)C(=O)CCOS(C)(=O)=O`, for which the T/C reads like this: under setting [4], 113 % of control; under setting [5], 161 % of control; (dose: 50.0 mg/kg/injection, vehicle: saline) 203 % of control and 219 % of control; (dose: 100.0 mg/kg/injection, vehicle: saline) 213 % of control and 263 % of control; (dose: 200.0 mg/kg/injection, vehicle: saline) 102 % of control.
Take `[Cl][Hg][Cl]`: the T/C is, setting by setting: (dose: 0.05 mg/kg/injection, vehicle: saline) 105 % of control; (dose: 0.06 mg/kg/injection, vehicle: saline) 96 % of control; (dose: 0.1 mg/kg/injection, vehicle: saline) 97 % of control; (dose: 0.12 mg/kg/injection, vehicle: saline) 104 % of control; (dose: 0.2 mg/kg/injection, vehicle: saline) 100 % of control; (dose: 0.25 mg/kg/injection, vehicle: saline) 104 % of control. Moreover, the T/C runs as follows: (dose: 0.4 mg/kg/injection, vehicle: saline) 102 % of control; (dose: 0.5 mg/kg/injection, vehicle: saline) 86 % of control; (dose: 0.8 mg/kg/injection, vehicle: saline) 86 % of control.
In the case of `O=C(NC(Cc1ccccc1)C(=O)O)OCc1ccccc1` (centres undefined), the T/C is, setting by setting: (dose: 50.0 mg/kg/injection, vehicle: Klucel (hydroxypropylcellulose) (HPC)) 99 % of control; (dose: 100.0 mg/kg/injection, vehicle: Klucel (hydroxypropylcellulose) (HPC)) 102 % of control.
As to `CN(C)CC(O)c1cc2ccccc2c2ccccc12` (centres undefined), the T/C by setting is: under setting [4], 103 % of control; under setting [5], 103 % of control.
In the case of `C=COC(=O)N(C)C`, the T/C by setting is: (dose: 100.0 mg/kg/injection, vehicle: saline with Tween-80) 99 % of control; under setting [3], 97 % of control.
As for `NC(=O)CC(NC(=O)OCC1c2ccccc2-c2ccccc21)C(=O)O` (centres undefined), the T/C runs as follows: (dose: 12.5 mg/kg/injection, vehicle: Klucel (hydroxypropylcellulose) (HPC)) 116 % of control; (dose: 25.0 mg/kg/injection, vehicle: Klucel (hydroxypropylcellulose) (HPC)) 107 % of control.
Consider `CC(=O)C1=C(O)C2(O)C(=O)c3c(c(C)c4ccc(C)c(O)c4c3O)CC2C(N)C1=O` (centres undefined), for which the T/C was 109 % of control (dose: 3.75 mg/kg/injection, vehicle: saline + alcohol); 120 % of control (dose: 7.3 mg/kg/injection, vehicle: saline + alcohol); 114 % of control (dose: 7.5 mg/kg/injection, vehicle: saline + alcohol).
`c1ccc2c3c(c4c(c2c1)CN(C1CCCCC1)CO4)OCN(C1CCCCC1)C3`: the T/C runs as follows: (dose: 3.12 mg/kg/injection, vehicle: other) 92 % of control; (dose: 6.25 mg/kg/injection, vehicle: other) 89 % of control.
Regarding `CCC(=O)OC1CC=NN2C(=O)C(NC(=O)c3nc4ccc(OC)cc4cc3O)COC(=O)C(C(C)(C)O)N(C)C(=O)CN(C)C(=O)CNC(=O)C3C(OC(C)=O)CC=NN3C(=O)C(NC(=O)c3nc4ccc(OC)cc4cc3O)COC(=O)C(C(C)(C)O)N(C)C(=O)CN(C)C(=O)CNC(=O)C12` (centres undefined) (I: {Quinaldoyl(3-OH,6-OMe)}-S[X6]G[Sar][ξNMeVal(3-OH)] / II: {Quinaldoyl(3-OH,6-OMe)}-S[X7]G[Sar][ξNMeVal(3-OH)]; ester I:1-II:C, I:C-II:1; configuration not given here), the T/C is, setting by setting: (dose: 4.0 micrograms/kg/injection, vehicle: saline) 98 % of control; (dose: 8.0 micrograms/kg/injection, vehicle: saline) 105 % of control; (dose: 16.0 micrograms/kg/injection, vehicle: saline) 111 % of control.
For the compound `COc1cc2c(cc1O)C1CC(CC3CCCCN31)OC(=O)/C=C\c1ccc(O)c-2c1` (centres undefined), the T/C (dose: 15.0 mg/kg/injection, vehicle: saline) is 101 % of control; the T/C (dose: 30.0 mg/kg/injection, vehicle: saline) was 104 % of control; the T/C (dose: 60.0 mg/kg/injection, vehicle: saline) was 114 % of control; the T/C (dose: 120.0 mg/kg/injection, vehicle: saline) was 102 % of control.
Regarding `COc1c(O)cc2c(c1OC)-c1ccc(SC)c(=O)cc1C(NC(C)=O)CC2` (centres undefined), the T/C was 160 % of control (dose: 1.25 mg/kg/injection, vehicle: Klucel (hydroxypropylcellulose) (HPC)); 180 % of control and 182 % of control and 186 % of control (dose: 1.8 mg/kg/injection, vehicle: Klucel (hydroxypropylcellulose) (HPC)); 156 % of control and 167 % of control (dose: 2.5 mg/kg/injection, vehicle: Klucel (hydroxypropylcellulose) (HPC)); 178 % of control and 184 % of control and 198 % of control (dose: 3.0 mg/kg/injection, vehicle: Klucel (hydroxypropylcellulose) (HPC)); 180 % of control (dose: 10.0 mg/kg/injection, vehicle: Klucel (hydroxypropylcellulose) (HPC)).
Take `[Cl][Pt+2][Cl].[NH-]c1ccc([N+](=O)[O-])cc1[NH-]`: the T/C is 107 % of control under setting [6]; 105 % of control (dose: 20.0 mg/kg/injection, vehicle: saline with Tween-80); 118 % of control (dose: 40.0 mg/kg/injection, vehicle: saline with Tween-80); 116 % of control (dose: 80.0 mg/kg/injection, vehicle: saline with Tween-80).
Regarding `Nc1ccc(Cn2ccc3c4c(N)nc(N)nc4ccc32)cc1`, the T/C (dose: 1.25 mg/kg/injection, vehicle: saline with Tween-80) was 95 % of control and 100 % of control; the T/C (dose: 2.5 mg/kg/injection, vehicle: saline with Tween-80) is 110 % of control and 99 % of control; the T/C (dose: 5.0 mg/kg/injection, vehicle: saline with Tween-80) is 99 % of control and 105 % of control; the T/C under setting [6] was 111 % of control and 119 % of control.
On to `CCc1cc2c(cc1C(C)=O)C(C)(C)CCC2(C)C`, for which the T/C runs as follows: under setting [2], 89 % of control; under setting [7], 95 % of control; under setting [8], 106 % of control.
For the compound `[Na+]`, the T/C (dose: 25.0 mg/kg/injection, vehicle: water) is 111 % of control; the T/C (dose: 50.0 mg/kg/injection, vehicle: water) was 91 % of control; the T/C (dose: 100.0 mg/kg/injection, vehicle: water) was 92 % of control; the T/C (dose: 200.0 mg/kg/injection, vehicle: water) is 106 % of control; the T/C (dose: 400.0 mg/kg/injection, vehicle: water) is 86 % of control.
Turning to `CCCCCCCCCCCCCC#CC(=O)O`, the T/C runs as follows: under setting [1], 110 % of control and 94 % of control; under setting [2], 112 % of control and 94 % of control; under setting [7], 92 % of control and 105 % of control; under setting [8], 89 % of control.

The record behind these values is PubChem BioAssay AID200 (DTP/NCI, 2004).
